What was measured:
[1] = system: glioblastoma (GBM) cells; experiment: In vitro functional assays in glioblastoma cells (proliferation, migration, tumoursphere formation, VEGF secretion, apoptosis, marker expression); type: cell-based, human
Description: The proliferation assay (see below) was used to develop a dose-response and IC50 determination of pladienolide-b in glioblastoma cells. The selected doses of pladienolide-b, based on previously reported in vitro studies, were 10^-9 , 10^-7 and 10^-5 M measured 48 h after administration of the SF3B1 inhibitor in glioblastoma cell lines and patient-derived primary glioblastoma cell culture. Least squares regression was used as a method of adjustment to the IC50 determination.
As described above, cell proliferation and migration in response to pladienolide-b treatment were analyzed using the alamar blue assay (3,000 cells/well for cell lines and 10,000 cells/well for primary cell cultures; Biosource International, # BUF012B) and the wound healing technique (150,000 U-118 MG cells/well), respectively. For the migration assay, U-118 MG cells cultured at confluence were serum deprived for 24 h to achieve cell synchronization and then wounded with a sterile 200 µl pipette tip. Wells were replaced and cells were incubated for 6 h and 24 h with medium supplemented without FBS. Wound healing was compared to the area immediately after wounding. […]
The VEGF human ELISA kit (ThermoFisher Scientific, no. KHG0112) was used to quantify VEGF secretion in response to pladienolide-b in glioblastoma cell lines, following the manufacturer's instructions. […]

[2] = system: U-87 MG cells; experiment: Preclinical xenograft GBM mouse model, intratumoral injection; type: in vivo, mice
Description: A preclinical xenograft mouse model was developed to test pladienolide-b in vivo. Five-week-old ATHYMFoxn1nu/nu mice (n = 6; Janvier-Labs) were subcutaneously injected with 3×10^6 of U-87 MG cells in both flanks [in 100 µl of basal membrane extract (Trevigen, # 3432-010-01)]. Once the tumour was clearly measurable (10 days after cell inoculation), each mouse received an intratumour injection with 50 µl of pladienolide-b (10^-7 M) in one flank and vehicle (1x DPBS, Sigma-Aldrich, # D1408) used as a control in another flank. Tumour growth was monitored every 2 days using a digital caliper. 20 days after injection, mice were sacrificed and each tumour was dissected, fixed, and sectioned for histopathological examination after staining with haematoxylin and eosin. Examination of the number of mitoses, vascular proliferation and necrosis was performed by experienced pathologists. Additional tumour pieces were in liquid nitrogen until RNA extraction using Trizol reagent and protein extraction using SDS-DTT buffer, as previously reported. One individual was assessed by micro-CT imaging using SkyScan1176 Bruker and a software environment to show the location of the tumour in vivo prior to dissection. 2D analysis along with 3D image rendering was performed using VolView 3.4 software (KitWare Inc). […]

## CC[C@H](O)[C@@H](C)[C@H]1O[C@@H]1C[C@H](C)/C=C/C=C(\C)[C@H]1OC(=O)C[C@H](O)CC[C@@](C)(O)[C@@H](OC(C)=O)/C=C/[C@@H]1C [pladienolide-b, [(2 S, 3 S, 4 E , 6 S , 7 R , 10 R ) -7,10-dihydroxy-2 - [(2 E , 4 E, 6 S ) -7 - [(2 R , 3 R ) -3 - [(2 R , 3 S ) -3-hydroxypentan-2-yl]oxiran-2-yl] -6-methylhepta-2,4-dien-2-yl] -3,7-dimethyl-12-oxo-1-oxazacyclododec-4-en-6-yl] acetate]
[1]; 10^-7 M, compared to control conditions, U-87 MG, U-118 MG and patient-derived primary GBM cells
  critical functional parameters of aggressiveness and key markers of tumour development/progression/aggressiveness: decreases
[1]; summary statement (Figure 4)
  several functional parameters in vitro: reduced
[2]; U-87 MG xenograft, intratumour injection of 50 µl (10^-7 M) versus vehicle-treated flank
  glioblastoma (GBM) progression and vascularization: alters
[2]; in vivo, summary statement (Figure 5)
  several functional parameters in vivo: reduced
